Key:
Leaf [1] = experiment: Drug recovery in leaf of Secale cereale (rye) at 5 ng/g by LC-MS analysis
Leaf [2] = experiment: Drug recovery in leaf of Secale cereale (rye) at 50 ng/g by LC-MS analysis

Row | Drug recovery (Leaf [1]) [%] | Drug recovery (Leaf [2]) [%] | SMILES
1 | 81 | 65 | O=c1c(-c2ccc(O)cc2)coc2cc(O)cc(O)c12 [GENISTEIN]
2 | 104 | 76 | COc1ccc(C2COc3cc(O)cc(O)c3C2=O)cc1 (configuration not stated) [DIHYDROBIOCHANIN A]
3 | 79 | 81 | O=C(O)/C=C/c1ccc(O)cc1 [COUMARIC ACID]
4 | 98 |  | COc1ccc(-c2coc3cc(O)cc(O)c3c2=O)cc1O [PRATENSEIN]
